Key:
Type in all cases: cell-based
Proteus mirabilis = assay: MIC against Gram-negative bacteria: Proteus mirabilis; conditions: 5×10^5 CFU/mL
Outline: (§1)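 Bacteria grown in LB at 37° C to McFarland 0.5, resuspended and seeded at 5×10^5 CFU/mL in 96-well plates. Purified human EGF-domain proteins two-fold serially diluted, triplicate wells; cultured at 37° C, shaking 175 rpm. MIC = lowest protein concentration with no growth.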

Enterobacter cloacae = assay: MIC against Gram-negative bacteria: Enterobacter cloacae; conditions: 5×10^5 CFU/mL
Outline: as §1

Moraxella catarrhalis = assay: MIC against Gram-negative bacteria: Moraxella catarrhalis; conditions: 5×10^5 CFU/mL
Outline: as §1

Proteus vulgaris = assay: MIC against Gram-negative bacteria: Proteus vulgaris; conditions: 5×10^5 CFU/mL
Outline: as §1

Aeromonas hydrophila = assay: MIC against Gram-negative bacteria: Aeromonas hydrophila; conditions: 5×10^5 CFU/mL
Outline: as §1

Citrobacter diversus = assay: MIC against Gram-negative bacteria: Citrobacter diversus; conditions: 5×10^5 CFU/mL
Outline: as §1

E. coli DH5α = assay: Antibacterial activity: MIC and growth curve against E. coli DH5α in 96-well plate; conditions: minimal inhibitory concentration against E. coli DH5α; 96-well plate, 5×10^5 CFU/mL, 37° C., judged after 8 h
Outline: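 MIC taken as lowest protein level with no bacterial growth, tracked by A600 every 30 min during 37 °C, 175 rpm culture. Two-fold protein series 50-12.5 μg/mL final, triplicate wells, against 5×10^5 CFU/mL of LB-washed mid-log cells.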

Pseudomonas aeruginosa = assay: MIC against Gram-negative bacteria: Pseudomonas aeruginosa; conditions: 5×10^5 CFU/mL
Outline: as §1

E. coli BL21 = assay: MIC against Gram-negative bacteria: E. coli BL21; conditions: 5×10^5 CFU/mL
Outline: as §1

Serratia marcescens = assay: MIC against Gram-negative bacteria: Serratia marcescens; conditions: 5×10^5 CFU/mL
Outline: as §1

Klebsiella pneumonia = assay: MIC against Gram-negative bacteria: Klebsiella pneumonia; conditions: 5×10^5 CFU/mL
Outline: as §1

[1] = E. coli BL21, 10 h cultivation at 37° C.
[2] = Proteus mirabilis, 96-well plate, 37° C., 10 h
[3] = Enterobacter cloacae, 96-well plate, 37° C., 10 h
[4] = Moraxella catarrhalis, 96-well plate, 37° C., 10 h
[5] = Proteus vulgaris, 96-well plate, 37° C., 10 h
[6] = Aeromonas hydrophila, 96-well plate, 37° C., 10 h
[7] = Citrobacter diversus, 96-well plate, 37° C., 10 h
[8] = Pseudomonas aeruginosa, 96-well plate, 37° C., 10 h
[9] = E. coli BL21, 96-well plate, 37° C., 10 h
[10] = Serratia marcescens, 96-well plate, 37° C., 10 h
[11] = Klebsiella pneumonia, 96-well plate, 37° C., 10 h

Substance: PRT429 (DVNECEAQRCSQECANIYGSYQCYCRQGYQLAEDGHTCT; listed as Homo sapiens)
- MIC (Proteus mirabilis; P. mirabilis, 10 h cultivation at 37° C.): 25 µg/mL
- MIC (Enterobacter cloacae; E. cloacae, 10 h cultivation at 37° C.): 50 µg/mL
- MIC (Moraxella catarrhalis; M. catarrhalis, 10 h cultivation at 37° C.): 12.5 µg/mL
- MIC (Proteus vulgaris; P. vulgaris, 10 h cultivation at 37° C.): 50 µg/mL
- MIC (Aeromonas hydrophila; A. hydrophila, 10 h cultivation at 37° C.): 12.5 µg/mL
- MIC (Citrobacter diversus; C. diversus, 10 h cultivation at 37° C.): 50 µg/mL
- MIC (E. coli DH5α): 12.5 µg/mL
- MIC (Pseudomonas aeruginosa; P. aeruginosa, 10 h cultivation at 37° C.): 50 µg/mL
- MIC (E. coli BL21; [1]): 12.5 µg/mL
- MIC (Serratia marcescens; S. marcescens, 10 h cultivation at 37° C.): 25 µg/mL
- MIC (Klebsiella pneumonia; K. pneumonia, 10 h cultivation at 37° C.): 12.5 µg/mL

Substance: PRT128 (CLPSYCEHGGECSQSWDTFSCDCLGTGYTGETC; listed as Homo sapiens)
- MIC (μg/mL) P. mirabilis (Proteus mirabilis; [2]): 12.5 µg/mL
- MIC (μg/mL) E. cloacae (Enterobacter cloacae; [3]): 12.5 µg/mL
- MIC (μg/mL) M. catarrhalis (Moraxella catarrhalis; [4]): 12.5 µg/mL
- MIC (μg/mL) P. vulgaris (Proteus vulgaris; [5]): 12.5 µg/mL
- MIC (μg/mL) A. hydrophila (Aeromonas hydrophila; [6]): 12.5 µg/mL
- MIC (μg/mL) C. diversus (Citrobacter diversus; [7]): 12.5 µg/mL
- MIC (E. coli DH5α): 12.5 µg/mL
- MIC (μg/mL) P. aeruginosa (Pseudomonas aeruginosa; [8]): 12.5 µg/mL
- MIC (μg/mL) E. coli BL21 (E. coli BL21; [9]): 25 µg/mL
- MIC (μg/mL) S. marcescens (Serratia marcescens; [10]): 50 µg/mL
- MIC (μg/mL) K. pneumonia (Klebsiella pneumonia; [11]): 25 µg/mL

Substance: PRT1383 (GTRSCPWDCGEGGRCVDGRCVCWPGYTGEDC; listed as Homo sapiens)
- MIC against P. mirabilis (Proteus mirabilis; Proteus mirabilis, 10 h cultivation at 37° C.): 50 µg/mL
- MIC against E. cloacae (Enterobacter cloacae; Enterobacter cloacae, 10 h cultivation at 37° C.): 12.5 µg/mL
- MIC against M. catarrhalis (Moraxella catarrhalis; Moraxella catarrhalis, 10 h cultivation at 37° C.): 12.5 µg/mL
- MIC against P. vulgaris (Proteus vulgaris; Proteus vulgaris, 10 h cultivation at 37° C.): 12.5 µg/mL
- MIC against A. hydrophila (Aeromonas hydrophila; Aeromonas hydrophila, 10 h cultivation at 37° C.): 50 µg/mL
- MIC against C. diversus (Citrobacter diversus; Citrobacter diversus, 10 h cultivation at 37° C.): 25 µg/mL
- MIC (E. coli DH5α): 12.5 µg/mL
- MIC against P. aeruginosa (Pseudomonas aeruginosa; Pseudomonas aeruginosa, 10 h cultivation at 37° C.): 12.5 µg/mL
- MIC against E. coli BL21 (E. coli BL21; [1]): 12.5 µg/mL
- MIC against S. marcescens (Serratia marcescens; Serratia marcescens, 10 h cultivation at 37° C.): 50 µg/mL
- MIC against K. pneumonia (Klebsiella pneumonia; Klebsiella pneumonia, 10 h cultivation at 37° C.): 25 µg/mL

Substance: PRT13 (PARSCAEEPCGAGTCKETEGHVICLCPPGYTGEHCN; listed as Homo sapiens)
- MIC (μg/mL) P. mirabilis (Proteus mirabilis; [2]): 50 µg/mL
- MIC (μg/mL) E. cloacae (Enterobacter cloacae; [3]): 12.5 µg/mL
- MIC (μg/mL) M. catarrhalis (Moraxella catarrhalis; [4]): 12.5 µg/mL
- MIC (μg/mL) P. vulgaris (Proteus vulgaris; [5]): 25 µg/mL
- MIC (μg/mL) A. hydrophila (Aeromonas hydrophila; [6]): 12.5 µg/mL
- MIC (μg/mL) C. diversus (Citrobacter diversus; [7]): 25 µg/mL
- MIC (E. coli DH5α): 25 µg/mL
- MIC (μg/mL) P. aeruginosa (Pseudomonas aeruginosa; [8]): 12.5 µg/mL
- MIC (μg/mL) E. coli BL21 (E. coli BL21; [9]): 12.5 µg/mL
- MIC (μg/mL) S. marcescens (Serratia marcescens; [10]): 12.5 µg/mL
- MIC (μg/mL) K. pneumonia (Klebsiella pneumonia; [11]): 25 µg/mL

Substance: PRT691 (DINECDEAEAASPLCVNARCLNTDGSFRCICRPGFAPTHQPHHCA; listed as Homo sapiens)
- MIC P. mirabilis (Proteus mirabilis; 96-well plate, 37° C., 10 h): 25 µg/mL
- MIC E. cloacae (Enterobacter cloacae; 96-well plate, 37° C., 10 h): 25 µg/mL
- MIC M. catarrhalis (Moraxella catarrhalis; 96-well plate, 37° C., 10 h): 12.5 µg/mL
- MIC P. vulgaris (Proteus vulgaris; 96-well plate, 37° C., 10 h): 50 µg/mL
- MIC A. hydrophila (Aeromonas hydrophila; 96-well plate, 37° C., 10 h): 12.5 µg/mL
- MIC C. diversus (Citrobacter diversus; 96-well plate, 37° C., 10 h): 50 µg/mL
- MIC (E. coli DH5α): 25 µg/mL
- MIC P. aeruginosa (Pseudomonas aeruginosa; 96-well plate, 37° C., 10 h): 12.5 µg/mL
- MIC E. coli BL21 (E. coli BL21; 96-well plate, 37° C., 10 h): 50 µg/mL
- MIC S. marcescens (Serratia marcescens; 96-well plate, 37° C., 10 h): 12.5 µg/mL
- MIC K. pneumonia (Klebsiella pneumonia; 96-well plate, 37° C., 10 h): 50 µg/mL

Source: patent publication US9833497B2, “Human originated EGF domain proteins and use of the same” (CHENGDU SOURCEBIO LIMITED-LIABILITY COMPANY, priority 2013, dated 2017)
